Measured values as given in DBAASP.
≈ marks a conversion by molar mass, not a printed value.

Columns and labels:
Assay in all cases: ≥ marks a high value that may be exact or a test limit, other limits are often not marked, values filed in µg/mL are converted to µM
[1] = tested on: Staphylococcus aureus ATCC 33591
[2] = tested on: Pseudomonas aeruginosa ATCC 10145
[3] = tested on: Escherichia coli ATCC 2592
[4] = tested on: Candida albicans ATCC 10231
[5] = tested on: Cryptococcus neoformans ATCC 32045
[6] = tested on: Bacillus subtilis ATCC 6633
[7] = tested on: Escherichia coli ATCC 15597
[8] = tested on: Salmonella typhimurium DA6192
[9] = tested on: Pseudomonas aeruginosa ATCC 27853
[10] = tested on: Micrococcus luteus ATCC 49732
[11] = tested on: Staphylococcus aureus ATCC 6538
[12] = tested on: Klebsiella pneumoniae NCTC 5055
[13] = tested on: Staphylococcus aureus ATCC 43300
[14] = tested on: Staphylococcus epidermidis ATCC 12228
[15] = tested on: Candida parapsilosis CGMCC 2.3989
Escherichia coli K88 = tested on: Escherichia coli K88
[16] = tested on: Salmonella enterica subsp. enterica serovar Typhimurium C77-31
[17] = tested on: Salmonella enterica subsp. enterica serovar Pullorum ATCC 7913
Escherichia coli K99 = tested on: Escherichia coli K99
[18] = tested on: Staphylococcus aureus ATCC 25923
[19] = tested on: Candida albicans CGMCC 2.2086
[20] = tested on: Candida tropicalis CGMCC 2.1975
Escherichia coli UB1005 = tested on: Escherichia coli UB1005
Escherichia coli 078 = tested on: Escherichia coli 078
[21] = tested on: Staphylococcus aureus ATCC 29213
[22] = tested on: Salmonella enterica subsp. enterica serovar Typhimurium ATCC 14028
[23] = tested on: Staphylococcus epidermidis ATCC 35984

Row | Compound | MIC [1] [µM] | MIC [2] [µM] | MIC [3] [µM] | MIC [4] [µM] | MIC [5] [µM] | MIC [6] [µM] | MIC [7] [µM] | MIC [8] [µM] | MIC [9] [µM] | MIC [10] [µM] | MIC [11] [µM] | MIC [12] [µM] | MIC [18] [µM] | other results
1 | C[C@H](NC(=O)[C@H](Cc1ccccc1)NC(=O)[C@H](CCCCN)NC(=O)[C@H](CCCCN)NC(=O)[C@H](C)NC(=O)[C@H](Cc1ccccc1)NC(=O)[C@H](CCCCN)NC(=O)[C@H](CCCCN)NC(=O)[C@H](C)NC(=O)[C@H](Cc1ccccc1)NC(=O)[C@H](CCCCN)NC(=O)[C@H](CCCCN)NC(=O)[C@H](C)NC(=O)[C@H](Cc1ccccc1)NC(=O)[C@@H](N)CCCCN)C(=O)N[C@@H](CCCCN)C(=O)O [KFAKKFAKKFAKKFAK] | ≥ 130 | ≥ 65.2 | ≥ 45.9 | 55.3 (≈ 106 µg/mL) | 3.62 (≈ 6.93 µg/mL) | – | – | – | – | – | – | – | – | –
2 | CC[C@H](C)[C@H](N)C(=O)N[C@H](C(=O)N[C@@H](CCCCN)C(=O)N[C@H](C(=O)N[C@H](C(=O)N[C@H](C(=O)N[C@@H](CCCCN)C(=O)N[C@@H](CC(C)C)C(=O)N[C@@H](CC(C)C)C(=O)N[C@@H](CC(N)=O)C(=O)N[C@@H](CCCN=C(N)N)C(=O)N[C@@H](CC(C)C)C(=O)N[C@@H](CO)C(=O)N[C@@H](CCCCN)C(=O)N[C@H](C(=O)N[C@@H](CC(C)C)C(=O)N[C@@H](CO)C(=O)N[C@@H](CCCCN)C(=O)O)[C@@H](C)CC)[C@@H](C)O)[C@@H](C)CC)C(C)C)[C@@H](C)O [ITKVITKLLNRLSKILSK] | – | – | – | – | – | 4.2 (≈ 8.69 µg/mL) | 2.8 (≈ 5.79 µg/mL) | 16.7 (≈ 34.5 µg/mL) | 2.08 (≈ 4.3 µg/mL) | 1.05 (≈ 2.17 µg/mL) | > 50 | 25 (≈ 51.7 µg/mL) | – | –
3 | CC[C@H](C)[C@H](N)C(=O)N[C@H](C(=O)N[C@@H](CCC(=O)O)C(=O)N[C@H](C(=O)N[C@H](C(=O)N[C@H](C(=O)N[C@H](C(=O)N[C@@H](CC(C)C)C(=O)N[C@@H](CC(C)C)C(=O)N[C@@H](CC(N)=O)C(=O)N[C@@H](CCCN=C(N)N)C(=O)N[C@@H](CC(C)C)C(=O)N[C@H](C(=O)N[C@@H](CC(=O)O)C(=O)N[C@@H](CCCN=C(N)N)C(=O)N[C@@H](CC(C)C)C(=O)N[C@@H](CCC(=O)O)C(=O)N[C@@H](CCCCN)C(=O)O)[C@@H](C)O)[C@@H](C)CC)[C@@H](C)O)[C@@H](C)CC)C(C)C)[C@@H](C)O [ITEVITILLNRLTDRLEK] | – | – | – | – | – | ≥ 100 | ≥ 100 | ≥ 100 | > 100 | ≥ 100 | > 100 | ≥ 100 | – | –
4 | CC(C)C[C@H](NC(=O)[C@H](CCCCN)NC(=O)[C@H](CC(C)C)NC(=O)[C@H](CCCCN)NC(=O)[C@H](CC(C)C)NC(=O)[C@H](CCCCN)NC(=O)[C@H](CC(C)C)NC(=O)[C@H](CCCCN)NC(=O)[C@H](CC(C)C)NC(=O)[C@H](CCCCN)NC(=O)[C@H](CC(C)C)NC(=O)[C@H](CCCCN)NC(=O)[C@H](CC(C)C)NC(=O)[C@H](CCCCN)NC(=O)[C@H](CC(C)C)NC(=O)[C@H](CCCCN)NC(=O)[C@H](CC(C)C)NC(=O)[C@H](CCCCN)NC(=O)[C@H](CC(C)C)NC(=O)[C@H](CCCCN)NC(=O)[C@H](CC(C)C)NC(=O)[C@H](CCCCN)NC(=O)[C@@H](N)CC(C)C)C(=O)N[C@@H](CCCCN)C(=O)O [LKLKLKLKLKLKLKLKLKLKLKLK] | ≥ 85.8 | 15.4 (≈ 45 µg/mL) | 30.2 (≈ 88 µg/mL) | 121 (≈ 354 µg/mL) | 15.3 (≈ 44.5 µg/mL) | – | – | – | – | – | – | – | – | –
5 | CC[C@H](C)[C@H](NC(=O)[C@H](CCCCN)NC(=O)[C@H](C)NC(=O)[C@H](C)N)C(=O)N[C@H](C(=O)N[C@@H](CC(C)C)C(=O)N[C@@H](CC(N)=O)C(=O)N1CCC[C@H]1C(=O)N[C@@H](CCCCN)C(=O)N[C@@H](Cc1ccccc1)C(=O)N[C@@H](CCCN=C(N)N)C(=O)N[C@H]1CSSC[C@@H](C(N)=O)NC(=O)[C@H](Cc2ccccc2)NC(=O)[C@H](C)NC(=O)[C@H](C)NC(=O)[C@H](CCCCN)NC1=O)[C@@H](C)CC [AAKIILNPKFRCKAAFC] | – | – | – | – | – | – | – | – | > 128 | – | – | – | 64 (≈ 121 µg/mL) | MIC [13]: > 128 µM; MIC [14]: > 128 µM; MIC [15]: ≥ 128 µM; MIC (Escherichia coli K88): ≥ 32 µM; MIC [16]: ≥ 128 µM; MIC [17]: ≥ 64 µM; MIC (Escherichia coli K99): ≥ 32 µM; MIC [19]: ≥ 128 µM; MIC [20]: ≥ 128 µM; MIC (Escherichia coli UB1005): ≥ 64 µM; MIC (Escherichia coli 078): ≥ 128 µM; MIC [21]: > 128 µM; MIC [22]: 64 µM (≈ 121 µg/mL)
6 | CC[C@H](C)[C@H](N)C(=O)N[C@H](C(=O)N[C@@H](CCCCN)C(=O)N[C@H](C(=O)N[C@H](C(=O)N[C@@H](C)C(=O)N[C@@H](CCCCN)C(=O)N[C@@H](CC(C)C)C(=O)N[C@@H](CC(C)C)C(=O)N[C@@H](CC(N)=O)C(=O)N[C@@H](CCCN=C(N)N)C(=O)N[C@@H](CC(C)C)C(=O)N[C@H](C(=O)N[C@@H](CCCCN)C(=O)N[C@H](C(=O)N[C@@H](CC(C)C)C(=O)N[C@@H](CO)C(=O)N[C@@H](CCCCN)C(=O)O)[C@@H](C)CC)[C@@H](C)O)[C@@H](C)CC)C(C)C)[C@@H](C)O [ITKVIAKLLNRLTKILSK] | – | – | – | – | – | 4.7 (≈ 9.65 µg/mL) | 3.1 (≈ 6.36 µg/mL) | 16.7 (≈ 34.3 µg/mL) | 3.1 (≈ 6.36 µg/mL) | 1.05 (≈ 2.16 µg/mL) | 5.2 (≈ 10.7 µg/mL) | 12.5 (≈ 25.7 µg/mL) | – | –
7 | CC[C@H](C)[C@H](N)C(=O)NCC(=O)N[C@@H](CCCCN)C(=O)N[C@@H](Cc1ccccc1)C(=O)N[C@@H](CC(C)C)C(=O)N[C@@H](CCCCN)C(=O)N[C@@H](CCCCN)C(=O)N[C@@H](C)C(=O)N[C@@H](CCCCN)C(=O)N[C@@H](CCCCN)C(=O)N[C@@H](Cc1ccccc1)C(=O)NCC(=O)N[C@@H](CCCCN)C(=O)N[C@@H](C)C(=O)N[C@@H](Cc1ccccc1)C(=O)N[C@H](C(=O)N[C@@H](CCCCN)C(N)=O)C(C)C [IGKFLKKAKKFGKAFVK] | ≥ 264 | – | – | – | – | – | – | – | 2.92 (≈ 5.65 µg/mL) | – | – | – | > 264 | MIC [23]: 11.7 µM (≈ 22.6 µg/mL)
8 | CC[C@H](C)[C@H](NC(=O)[C@H](CCCN=C(N)N)NC(=O)[C@H](C)NC(=O)[C@H](C)N)C(=O)N[C@H](C(=O)N[C@@H](CC(C)C)C(=O)N[C@@H](CCCN=C(N)N)C(=O)N1CCC[C@H]1C(=O)N[C@@H](CCCN=C(N)N)C(=O)N[C@@H](Cc1ccccc1)C(=O)N[C@@H](CCCN=C(N)N)C(N)=O)[C@@H](C)CC [AARIILRPRFR] | – | – | – | – | – | – | – | – | > 128 | – | – | – | > 128 | MIC [13]: > 128 µM; MIC [14]: > 128 µM; MIC [15]: ≥ 128 µM; MIC (Escherichia coli K88): 16 µM (≈ 21.9 µg/mL); MIC [16]: 16 µM (≈ 21.9 µg/mL); MIC [17]: 16 µM (≈ 21.9 µg/mL); MIC (Escherichia coli K99): 16 µM (≈ 21.9 µg/mL); MIC [19]: ≥ 128 µM; MIC [20]: ≥ 128 µM; MIC (Escherichia coli UB1005): 8 µM (≈ 10.9 µg/mL); MIC (Escherichia coli 078): 8 µM (≈ 10.9 µg/mL); MIC [21]: > 128 µM; MIC [22]: 16 µM (≈ 21.9 µg/mL)
9 | C[C@H](NC(=O)[C@H](Cc1ccccc1)NC(=O)[C@H](CCCCN)NC(=O)[C@H](Cc1ccccc1)NC(=O)[C@H](C)NC(=O)[C@H](Cc1ccccc1)NC(=O)[C@H](CCCCN)NC(=O)[C@H](Cc1ccccc1)NC(=O)[C@H](C)NC(=O)[C@H](Cc1ccccc1)NC(=O)[C@H](CCCCN)NC(=O)[C@H](Cc1ccccc1)NC(=O)[C@H](C)NC(=O)[C@H](Cc1ccccc1)NC(=O)[C@H](CCCCN)NC(=O)[C@H](Cc1ccccc1)NC(=O)[C@H](C)NC(=O)[C@H](Cc1ccccc1)NC(=O)[C@H](CCCCN)NC(=O)[C@H](Cc1ccccc1)NC(=O)[C@H](C)NC(=O)[C@H](Cc1ccccc1)NC(=O)[C@H](CCCCN)NC(=O)[C@H](Cc1ccccc1)NC(=O)[C@H](C)NC(=O)[C@H](Cc1ccccc1)NC(=O)[C@@H](N)CCCCN)C(=O)N[C@@H](Cc1ccccc1)C(=O)O [KFAFKFAFKFAFKFAFKFAFKFAFKFAF] | ≥ 144 | ≥ 72 | ≥ 288 | > 144 | ≥ 50.9 | – | – | – | – | – | – | – | – | –
